Measurements taken from patent publication US20100022613A1, “Compounds Having CRTH2 Antagonist Activity” (Oxagen Limited, priority 2008, published 2010).

Assays:
CRTH2 receptor = target: T1, CRTH2 receptor (Homo sapiens, UniProt Q9Y5Y4); experiment: Radioligand binding assay ([3H]PGD2) on CHO/CRTH2 cell membranes; conditions: [3H]PGD2 binding
T1 construct: expressed in transfected cells; host or cells: Chinese Hamster Ovary (CHO) cells, membranes
T1 sequence (Q9Y5Y4 1-395): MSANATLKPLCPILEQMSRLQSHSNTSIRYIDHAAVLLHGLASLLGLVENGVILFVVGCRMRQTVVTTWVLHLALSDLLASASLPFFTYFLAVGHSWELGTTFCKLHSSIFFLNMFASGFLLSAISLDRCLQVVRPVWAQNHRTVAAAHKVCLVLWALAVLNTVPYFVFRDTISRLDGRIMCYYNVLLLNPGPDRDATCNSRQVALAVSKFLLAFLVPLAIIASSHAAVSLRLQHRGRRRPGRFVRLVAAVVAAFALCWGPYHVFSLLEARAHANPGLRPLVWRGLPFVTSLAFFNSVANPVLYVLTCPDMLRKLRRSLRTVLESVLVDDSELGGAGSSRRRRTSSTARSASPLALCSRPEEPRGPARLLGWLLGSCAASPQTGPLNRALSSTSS
Procedure: Chinese Hamster Ovary cells were transfected with CRTH2 or DP receptors (CHO/CRTH2 and CHO/DP) and were maintained in culture in a humidified atmosphere at 37° C. (5% CO2) in Minimum Essential Medium (MEM) supplemented with 10% foetal bovine serum, 2 mM glutamine, and 1 mg ml^−1 active G418. The cells were passaged every 2-3 days. For radioligand binding assay, cells were prepared in triple-layer flasks or in 175 cm^2 square flasks (for membrane preparation).
Membranes were prepared either from CHO/CRTH2 and CHO/DP cells, or from platelets (as a source of TP receptors). CHO cells grown to confluency were washed with PBS and detached using a Versene solution (15 ml per flask). When the cells were grown in 175 cm^2 square flask, they were collected by scrapping in PBS. The cell suspensions were centrifuged (1,700 rpm, 10 min, 4° C.) and resuspended in 15 ml of buffer (1× HBSS, supplemented with 10 mM HEPES, pH 7.3). Cell suspensions were then homogenised using an Ultra Turrax at setting 4-6 for 20 s. The homogenate was centrifuged at 1,700 rpm for 10 min and the supernatant was collected and centrifuged at 20,000 rpm for 1 h at 4° C. The resulting pellet was resuspended in buffer and stored at −80° C. in aliquots of 200-500 μl. The protein concentration was determined by the method of Bradford (1976), using bovine serum albumin as standard. The platelets were washed by centrifugation at 600×g for 10 min and resuspended in ice-cold assay buffer (10 mM Tris-HCl, pH 7.4, 5 mM Glucose, 120 mM NaCl, 10 μM indomethacin) and directly centrifuged at 20,000 rpm for 30 min at 4° C. The resulting pellet was treated as described above.
[^3H]PGD2 (160 Ci/mmol) binding experiments were performed on membranes prepared as described above. Assays were performed in a final volume of 100 μl of buffer (1× HBSS/HEPES 10 mM, pH 7.3). Cell membranes (15 μg) were preincubated at room temperature with varying concentration of competing ligand for 15 min. [^3H]PGD2 was then added and the incubation continued for a further one hour at room temperature. The reaction was terminated by the addition of 200 μl ice-cold assay buffer to each well, followed by rapid filtration through Whatman GF/B glass fibre filters using a Unifilter Cell harvester (PerkinElmer Life Sciences) and six washes of 300 μl of ice-cold buffer. The Unifilter plates were dried at room temperature for at least 1 h and the radioactivity retained on the filters was determined on a Beta Trilux counter (PerkinElmer Life Sciences), following addition of 40 μl of Optiphase Hi-Safe 3 (Wallac) liquid scintillation. Non specific binding was defined in the presence of 10 μM unlabelled PGD2. Assays were performed in duplicate.

[1] = system: PGD2-induced eosinophil shape change; experiment: Human whole blood eosinophil shape change assay (PGD2-induced); format: cell-based; conditions: 10 nM PGD2, read-out: IC50 for the effect on 10 nM PGD2-induced eosinophil shape change in whole blood
Procedure: Compounds 1-6 were assayed for their effect on PGD2 induced eosinophil shape change.
Compounds (1 μl, 200× final concentration) were added directly to 200 μl whole blood, mixed well and incubated for 15 min, 37° C., 5% CO2. After this time, cell shape was fixed by addition of 300 μl Cytofix™ buffer (BD Biosciences), 15 min on ice. 10 ml RBC lysis buffer was added to the fixed cells, incubated 5 min, at room temperature and centrifuged, 300×g for 5 min. Supernatant (containing lysed red cells) was removed and the lysis step was repeated. Leukocytes were resuspended in 250 μl RPMI/10% FCS and shape change analysed by FACS. Eosinophils were gated out based on their autofluorescence and 2000 eosinophil events were counted per sample. Data were analysed in triplicate.

| Compound | Ki (CRTH2 receptor) | IC50 [1] |
| --- | --- | --- |
| Cc1c(Cc2ccc(S(=O)(=O)Cc3ccc(F)cc3)cc2)c2cc(F)ccc2n1CC(=O)O [Compound 6, 2-(3-(4-(4-Fluorobenzylsulfonyl)benzyl)-5-fluoro-2-methyl-1H-indol-1-yl)acetic acid] | 3 nM | 3 nM |
| Cc1c(Cc2ccc(S(=O)(=O)Cc3ccccc3)cc2)c2cc(F)ccc2n1CC(=O)O [Compound 1, 2-(3-(4-(Benzylsulfonyl)benzyl)-5-fluoro-2-methyl-1H-indol-1-yl)acetic acid] | 1 nM | 1 nM |
| Cc1c(Cc2ccc(S(=O)(=O)Cc3ccc(Cl)cc3)cc2)c2cc(F)ccc2n1CC(=O)O [Compound 2, 2-(3-(4-(4-Chlorobenzylsulfonyl)benzyl)-5-fluoro-2-methyl-1H-indol-1-yl)acetic acid] | 5 nM |  |
| Cc1c(Cc2cccc(S(=O)(=O)Cc3ccccc3)c2)c2cc(F)ccc2n1CC(=O)O [Compound 3, 2-(3-(3-(Benzylsulfonyl)benzyl)-5-fluoro-2-methyl-1H-indol-1-yl)acetic acid] | 3 nM | 77 nM |

Continued by falling Ki (CRTH2 receptor), values first:

| Ki (CRTH2 receptor) | IC50 [1] | Compound |
| --- | --- | --- |
| 3 nM | 12 nM | Cc1c(Cc2ccccc2S(=O)(=O)Cc2ccccc2)c2cc(F)ccc2n1CC(=O)O [Compound 5, 2-(3-(2-(Benzylsulfonyl)benzyl)-5-fluoro-2-methyl-1H-indol-1-yl)acetic acid] |
| 1 nM |  | Cc1c(Cc2cccc(S(=O)(=O)Cc3ccc(F)cc3)c2)c2cc(F)ccc2n1CC(=O)O [Compound 4, 2-(5-Fluoro-3-(3-(4-fluorobenzylsulfonyl)benzyl)-2-methyl-1H-indol-1-yl)acetic acid] |
